Assay results as given in US7741341B2, “Benzimidazole-derivatives as factor Xa inhibitors” (sanofi-aventis Deutschland GmbH, priority 2003, dated 2010).
pKi: −log10 of the molar value.

Target: T1, human factor Xa (Homo sapiens, UniProt P00742)
T1 construct: human factor Xa (Enzyme Research Laboratories, Inc; South Bend, Ind.); purchased Enzyme Research Laboratories, Inc; South Bend, Ind
Assay: Factor Xa assay (chromogenic, substrate S-2765)
Format: biochemical
Settings: read-out: Ki(FXa)
Procedure: Purified enzymes were used in chromogenic assays.
The IC50 was determined by combining in appropriate wells of a Costar half-area microtiter plate 25 μl human factor Xa (Enzyme Research Laboratories, Inc.; South Bend, Ind.) in TBS-PEG; 40 μl 10% (v/v) DMSO in TBS-PEG (uninhibited control) or various concentrations of the compound to be tested diluted in 10% (v/v) DMSO in TBS-PEG; and substrate S-2765 (N(α)-benzyloxycarbonyl-D-Arg-Gly-L-Arg-p-nitroanilide; Kabi Pharmacia, Inc.; Franklin, Ohio) in TBS-PEG.
The assay was performed by pre-incubating the compound of formula I plus enzyme for 10 min. Then the assay was initiated by adding substrate to obtain a final volume of 100 μl. […] The enzyme concentration was 0.5 nM and substrate concentration was 140 μM.

T1 sequence (P00742 235-488 limits assumed): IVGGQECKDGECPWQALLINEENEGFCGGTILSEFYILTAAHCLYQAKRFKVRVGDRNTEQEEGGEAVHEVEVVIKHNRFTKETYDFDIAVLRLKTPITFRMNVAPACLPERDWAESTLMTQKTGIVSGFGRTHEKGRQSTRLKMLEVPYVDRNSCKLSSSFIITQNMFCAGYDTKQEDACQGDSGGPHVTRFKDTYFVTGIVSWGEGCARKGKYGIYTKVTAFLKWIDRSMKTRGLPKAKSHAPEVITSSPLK
T1 sequence (P00742 41-179 partner limits assumed): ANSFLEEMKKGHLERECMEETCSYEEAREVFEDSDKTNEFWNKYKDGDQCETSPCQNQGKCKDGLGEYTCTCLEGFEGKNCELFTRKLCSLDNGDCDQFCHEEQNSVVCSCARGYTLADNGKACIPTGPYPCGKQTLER

pKi | Structure (SMILES)
7.81 | CC(C)N1CCC(NC(=O)c2nc3c(C(=O)N(C)CCO)cccc3n2CC(=O)Nc2ccc(Cl)cn2)CC1 [Example 31, 1-[(5-Chloro-pyridin-2-ylcarbamoyl)-methyl]-1H-benzoimidazole-2,4-dicarboxylic acid 4-[(2-hydroxy-ethyl)-methyl-amide] 2-[(1-isopropyl-piperidin-4-yl)-amide]]
7.98 | CC(C)N1CCC(NC(=O)c2nc3c(C(=O)N4CC(O)C4)cccc3n2CC(=O)Nc2ccc(Cl)cn2)CC1 [Example 32, 1-[(5-Chloro-pyridin-2-ylcarbamoyl)-methyl]-4-(3-hydroxy-azetidine-1-carbonyl)-1H-benzoimidazole-2-carboxylic acid (1-isopropyl-piperidin-4-yl)-amide]
7.90 | CCOC(=O)OC(C)OC(=O)c1cccc2c1nc(C(=O)NC1CCN(C(C)C)CC1)n2CC(=O)Nc1ccc(Cl)cn1 (stereo not drawn) [Example 33, 1-[(5-Chloro-pyridin-2-ylcarbamoyl)-methyl]-2-(1-isopropyl-piperidin-4-ylcarbamoyl)-1H-benzoimidazole-4-carboxylic acid 1-ethoxycarbonyloxy-ethyl ester]
7.71 | CC(OC(=O)OC1CCCCC1)OC(=O)c1cccc2c1nc(C(=O)NC1CCN(C(C)C)CC1)n2CC(=O)Nc1ccc(Cl)cn1 (stereo not drawn) [Example 34, 1-[(5-Chloro-pyridin-2-ylcarbamoyl)-methyl]-2-(1-isopropyl-piperidin-4-ylcarbamoyl)-1H-benzoimidazole-4-carboxylic acid 1-cyclohexyloxycarbonyloxy-ethyl ester]
7.39 | O=C(Cn1c(C(=O)Nc2ccc(N3CCOCC3=O)cc2)nc2ccccc21)Nc1ccc(Cl)cn1 [Example 35, 1-[(5-Chloro-pyridin-2-ylcarbamoyl)-methyl]-1H-benzoimidazole-2-carboxylic acid [4-(3-oxo-morpholin-4-yl)-phenyl]-amide]
7.50 | COC(=O)c1cccc2c1nc(C(=O)Nc1ccc(N3CCOCC3=O)cc1)n2CC(=O)Nc1ccc(Cl)cn1 [Example 36, 1-[(5-Chloro-pyridin-2-ylcarbamoyl)-methyl]-2-[4-(3-oxo-morpholin-4-yl)-phenylcarbamoyl]-1H-benzoimidazole-4-carboxylic acid methyl ester]
7.92 | O=C(Nc1ccc(-n2ccc(=O)cc2)cc1)c1nc2ccccc2n1Cc1cc(-c2ccc(Cl)s2)on1 [Example 37, 1-[5-(5-Chloro-thiophen-2-yl)-isoxazol-3-ylmethyl]-1H-benzoimidazole-2-carboxylic acid [4-(4-oxo-4H-pyridin-1-yl)-phenyl]-amide]
7.33 | O=C(Cn1c(C(=O)Nc2ccc(-n3ccc(=O)cc3)cc2)nc2ccccc21)Nc1ccc(Cl)cn1 [Example 39, 1-[(5-Chloro-pyridin-2-ylcarbamoyl)-methyl]-1H-benzoimidazole-2-carboxylic acid [4-(4-oxo-4H-pyridin-1-yl)-phenyl]-amide]
7.70 | CN1C2CCC1CC(NC(=O)c1nc3ccccc3n1Cc1cc(-c3ccc(Cl)s3)on1)C2 (stereo not drawn) [Example 40, 1-[5-(5-Chloro-thiophen-2-yl)-isoxazol-3-ylmethyl]-1H-benzoimidazole-2-carboxylic acid (8-methyl-8-aza-bicyclo[3.2.1]oct-3-yl)-amide]
8.22 | O=C(Nc1ccc(-n2ccc(=O)[nH]c2=O)cc1)c1nc2ccccc2n1Cc1cc(-c2ccc(Cl)s2)on1 [Example 41, 1-[5-(5-Chloro-thiophen-2-yl)-isoxazol-3-ylmethyl]-1H-benzoimidazole-2-carboxylic acid [4-(2,4-dioxo-3,4-dihydro-2H-pyrimidin-1-yl)-phenyl]-amide]
6.34 | O=C(Nc1ccc(N2CCOC2=O)cc1)c1nc2ccccc2n1Cc1cc(-c2ccc(Cl)s2)on1 [Example 42, 1-[5-(5-Chloro-thiophen-2-yl)-isoxazol-3-ylmethyl]-1H-benzoimidazole-2-carboxylic acid [4-(2-oxo-oxazolidin-3-yl)-phenyl]-amide]
6.08 | O=C(Cn1c(C(=O)Nc2ccc(N3CCOC3=O)cc2)nc2ccccc21)Nc1ccc(Cl)cn1 [Example 43, 1-[(5-Chloro-pyridin-2-ylcarbamoyl)-methyl]-1H-benzoimidazole-2-carboxylic acid [4-(2-oxo-oxazolidin-3-yl)-phenyl]-amide]
7.55 | O=C(Cn1c(C(=O)Nc2ccc(-n3ccc(=O)[nH]c3=O)cc2)nc2ccccc21)Nc1ccc(Cl)cn1 [Example 44, 1-[(5-Chloro-pyridin-2-ylcarbamoyl)-methyl]-1H-benzoimidazole-2-carboxylic acid [4-(2,4-dioxo-3,4-dihydro-2H-pyrimidin-1-yl)-phenyl]-amide]
6.68 | O=C1CCN(c2ccc(NC(=O)c3nc4ccccc4n3Cc3cc(-c4ccc(Cl)s4)on3)cc2)CC1 [Example 45, 1-[5-(5-Chloro-thiophen-2-yl)-isoxazol-3-ylmethyl]-1H-benzoimidazole-2-carboxylic acid [4-(4-oxo-piperidin-1-yl)-phenyl]-amide]
8.70 | O=C(Nc1ccc(-n2ccncc2=O)cc1)c1nc2ccccc2n1Cc1cc(-c2ccc(Cl)s2)on1 [Example 48, 1-[5-(5-Chloro-thiophen-2-yl)-isoxazol-3-ylmethyl]-1H-benzoimidazole-2-carboxylic acid [4-(2-oxo-2H-pyrazin-1-yl)-phenyl]-amide]
6.85 | O=C(Nc1ccc(N2CCNCC2=O)cc1)c1nc2ccccc2n1Cc1cc(-c2ccc(Cl)s2)on1 [Example 50, 1-[5-(5-Chloro-thiophen-2-yl)-isoxazol-3-ylmethyl]-1H-benzoimidazole-2-carboxylic acid [4-(2-oxo-piperazin-1-yl)-phenyl]-amide]
6.29 | O=C(Cn1c(C(=O)Nc2ccc(N3CCNCC3=O)cc2)nc2ccccc21)Nc1ccc(Cl)cn1 [Example 51, 1-[(5-Chloro-pyridin-2-ylcarbamoyl)-methyl]-1H-benzoimidazole-2-carboxylic acid [4-(2-oxo-piperazin-1-yl)-phenyl]-amide]
7.85 | COCCOc1cccc2c1nc(C(=O)Nc1ccc(N3CCOCC3=O)cc1)n2CC(=O)Nc1ccc(Cl)cn1 [Example 52, 1-[(5-Chloro-pyridin-2-ylcarbamoyl)-methyl]-4-(2-methoxy-ethoxy)-1H-benzoimidazole-2-carboxylic acid [4-(3-oxo-morpholin-4-yl)-phenyl]-amide]
7.40 | O=C(Cn1c(C(=O)Nc2ccc(N3CCOCC3=O)cc2)nc2c(C(=O)O)cccc21)Nc1ccc(Cl)cn1 [Example 53, 1-[(5-Chloro-pyridin-2-ylcarbamoyl)-methyl]-2-[4-(3-oxo-morpholin-4-yl)-phenylcarbamoyl]-1H-benzoimidazole-4-carboxylic acid]
7.51 | CC(C)N1CCC(NC(=O)c2nc3cc(C(=O)N4CC(O)C4)ccc3n2CC(=O)Nc2ccc(Cl)cn2)CC1 [Example 54, 1-[(5-Chloro-pyridin-2-ylcarbamoyl)-methyl]-5-(3-hydroxy-azetidine-1-carbonyl)-1H-benzoimidazole-2-carboxylic acid (1-isopropyl-piperidin-4-yl)-amide]
6.23 | CC(C)N1CCC(NC(=O)c2nc3ccc(C(=O)NCCO)cc3n2CC(=O)Nc2ccc(Cl)cn2)CC1 [Example 57, 3-[(5-Chloro-pyridin-2-ylcarbamoyl)-methyl]-3H-benzoimidazole-2,5-dicarboxylic acid 5-[(2-hydroxy-ethyl)-amide]2-[(1-isopropyl-piperidin-4-yl)-amide]]
